Measurements as given in ChEMBL document CHEMBL4507256 (2021).

What was measured:
[1] = biological target: SRSF protein kinase 1 (Homo sapiens) (UniProt Q96SB4); conditions: Compound concentration 1000.0 nM
[2] = biological target: T1, Sigma non-opioid intracellular receptor 1 (Homo sapiens, UniProt Q99720); assay: GPCRScan assay: inhibition of Sigma 1; design: radioligand conc. used [nm] 4.0 – 5.0, parental cells HEKT
[3] = biological target: Activin receptor type-1 (Homo sapiens) (UniProt Q04771); conditions: Compound concentration 1000.0 nM
[4] = biological target: Ephrin type-A receptor 2 (Homo sapiens) (UniProt P29317); conditions: Compound concentration 1000.0 nM
[5] = biological target: Interleukin-1 receptor-associated kinase 4 (Homo sapiens) (UniProt Q9NWZ3); conditions: Compound concentration 1000.0 nM
[6] = biological target: Tyrosine-protein kinase Yes (Homo sapiens) (UniProt P07947); conditions: Compound concentration 1000.0 nM
[7] = biological target: Cyclin-dependent kinase 11B (Homo sapiens) (UniProt P21127); conditions: Compound concentration 1000.0 nM
[8] = biological target: Death-associated protein kinase 1 (Homo sapiens) (UniProt P53355); conditions: Compound concentration 1000.0 nM
[9] = biological target: Sodium-dependent noradrenaline transporter (Homo sapiens) (UniProt P23975); conditions: Compound concentration 10.0 uM
[10] = biological target: Dual specificity mitogen-activated protein kinase kinase 4 (Homo sapiens) (UniProt P45985); conditions: Compound concentration 1000.0 nM
[11] = biological target: Testis-specific serine/threonine-protein kinase 3 (Homo sapiens) (UniProt Q96PN8); conditions: Compound concentration 1000.0 nM
[12] = biological target: Glycogen synthase kinase-3 alpha (Homo sapiens) (UniProt P49840); conditions: Compound concentration 1000.0 nM
[13] = biological target: T1, Sigma non-opioid intracellular receptor 1; conditions: Compound concentration 10.0 uM
[14] = biological target: Hormonally up-regulated neu tumor-associated kinase (Homo sapiens) (UniProt P57058); conditions: Compound concentration 1000.0 nM
[15] = tested on: Tyrosine-protein kinase ABL1 (Homo sapiens), P00519 [T315I]; conditions: Compound concentration 1000.0 nM
[16] = biological target: Serine/threonine-protein kinase LATS2 (Homo sapiens) (UniProt Q9NRM7); conditions: Compound concentration 1000.0 nM
[17] = biological target: 5-hydroxytryptamine receptor 1B (Homo sapiens) (UniProt P28222); conditions: Compound concentration 10.0 uM
[18] = biological target: Ribosomal protein S6 kinase alpha-1 (Homo sapiens) (UniProt Q15418); conditions: Compound concentration 1000.0 nM
[19] = biological target: Proto-oncogene tyrosine-protein kinase ROS (Homo sapiens) (UniProt P08922); conditions: Compound concentration 1000.0 nM
[20] = biological target: Serine/threonine-protein kinase PAK 3 (Homo sapiens) (UniProt O75914); conditions: Compound concentration 1000.0 nM
[21] = tested on: Fibroblast growth factor receptor 3 (Homo sapiens), P22607 [G697C]; conditions: Compound concentration 1000.0 nM
[22] = biological target: Activin receptor type-1-like (Homo sapiens) (UniProt P37023); conditions: Compound concentration 1000.0 nM
[23] = biological target: Ribosomal protein S6 kinase alpha-6 (Homo sapiens) (UniProt Q9UK32); conditions: Compound concentration 1000.0 nM
[24] = biological target: Fibroblast growth factor receptor 4 (Homo sapiens) (UniProt P22455); conditions: Compound concentration 1000.0 nM
[25] = tested on: ALK tyrosine kinase receptor (Homo sapiens), Q9UM73 [L1196M]; conditions: Compound concentration 1000.0 nM
[26] = tested on: Proto-oncogene tyrosine-protein kinase receptor Ret (Homo sapiens), P07949 [V804L]; conditions: Compound concentration 1000.0 nM
[27] = biological target: Serine/threonine-protein kinase B-raf (Homo sapiens) (UniProt P15056); conditions: Compound concentration 1000.0 nM
[28] = biological target: T2, 5-hydroxytryptamine receptor 3A (Homo sapiens) (UniProt P46098); conditions: Compound concentration 10.0 uM
T2 sequence (whole entry): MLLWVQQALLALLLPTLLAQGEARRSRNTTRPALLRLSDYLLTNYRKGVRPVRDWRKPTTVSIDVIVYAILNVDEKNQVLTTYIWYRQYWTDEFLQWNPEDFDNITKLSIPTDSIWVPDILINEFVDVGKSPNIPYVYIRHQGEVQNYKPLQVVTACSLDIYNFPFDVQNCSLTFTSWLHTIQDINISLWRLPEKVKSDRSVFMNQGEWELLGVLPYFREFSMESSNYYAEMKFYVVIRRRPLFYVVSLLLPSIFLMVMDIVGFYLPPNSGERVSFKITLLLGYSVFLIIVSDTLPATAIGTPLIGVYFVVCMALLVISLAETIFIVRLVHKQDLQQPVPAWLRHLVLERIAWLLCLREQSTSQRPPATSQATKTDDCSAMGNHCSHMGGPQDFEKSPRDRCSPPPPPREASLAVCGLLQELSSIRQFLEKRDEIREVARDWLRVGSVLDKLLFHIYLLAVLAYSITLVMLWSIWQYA

[29] = biological target: Ephrin type-A receptor 4 (Homo sapiens) (UniProt P54764); conditions: Compound concentration 1000.0 nM
[30] = biological target: T3, Muscarinic acetylcholine receptor M4 (Homo sapiens) (UniProt P08173); conditions: Compound concentration 10.0 uM
T3 sequence (whole entry): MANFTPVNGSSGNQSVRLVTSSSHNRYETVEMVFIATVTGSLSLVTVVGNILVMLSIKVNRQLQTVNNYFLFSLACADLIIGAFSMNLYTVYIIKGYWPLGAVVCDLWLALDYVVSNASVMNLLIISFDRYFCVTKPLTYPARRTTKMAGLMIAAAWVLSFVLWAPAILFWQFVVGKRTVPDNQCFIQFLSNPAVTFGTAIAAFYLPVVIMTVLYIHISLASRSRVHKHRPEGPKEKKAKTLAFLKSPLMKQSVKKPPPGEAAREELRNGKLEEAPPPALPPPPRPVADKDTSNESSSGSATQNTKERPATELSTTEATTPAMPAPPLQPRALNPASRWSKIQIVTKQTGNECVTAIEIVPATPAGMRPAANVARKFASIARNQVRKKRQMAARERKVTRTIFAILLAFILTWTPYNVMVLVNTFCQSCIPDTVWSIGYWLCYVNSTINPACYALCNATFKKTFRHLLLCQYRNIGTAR

[31] = biological target: Casein kinase I isoform gamma-2 (Homo sapiens) (UniProt P78368); conditions: Compound concentration 1000.0 nM
[32] = biological target: SRSF protein kinase 2 (Homo sapiens) (UniProt P78362); conditions: Compound concentration 1000.0 nM

T1 sequence (Q99720 whole entry): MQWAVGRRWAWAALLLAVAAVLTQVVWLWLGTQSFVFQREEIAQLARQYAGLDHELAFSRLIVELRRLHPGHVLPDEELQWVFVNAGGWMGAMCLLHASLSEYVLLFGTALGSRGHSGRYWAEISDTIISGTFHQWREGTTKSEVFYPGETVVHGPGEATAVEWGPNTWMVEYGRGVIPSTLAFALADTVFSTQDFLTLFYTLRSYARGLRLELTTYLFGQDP
Death-associated protein kinase 1 (Homo sapiens), sequence (P53355 whole entry, looked up): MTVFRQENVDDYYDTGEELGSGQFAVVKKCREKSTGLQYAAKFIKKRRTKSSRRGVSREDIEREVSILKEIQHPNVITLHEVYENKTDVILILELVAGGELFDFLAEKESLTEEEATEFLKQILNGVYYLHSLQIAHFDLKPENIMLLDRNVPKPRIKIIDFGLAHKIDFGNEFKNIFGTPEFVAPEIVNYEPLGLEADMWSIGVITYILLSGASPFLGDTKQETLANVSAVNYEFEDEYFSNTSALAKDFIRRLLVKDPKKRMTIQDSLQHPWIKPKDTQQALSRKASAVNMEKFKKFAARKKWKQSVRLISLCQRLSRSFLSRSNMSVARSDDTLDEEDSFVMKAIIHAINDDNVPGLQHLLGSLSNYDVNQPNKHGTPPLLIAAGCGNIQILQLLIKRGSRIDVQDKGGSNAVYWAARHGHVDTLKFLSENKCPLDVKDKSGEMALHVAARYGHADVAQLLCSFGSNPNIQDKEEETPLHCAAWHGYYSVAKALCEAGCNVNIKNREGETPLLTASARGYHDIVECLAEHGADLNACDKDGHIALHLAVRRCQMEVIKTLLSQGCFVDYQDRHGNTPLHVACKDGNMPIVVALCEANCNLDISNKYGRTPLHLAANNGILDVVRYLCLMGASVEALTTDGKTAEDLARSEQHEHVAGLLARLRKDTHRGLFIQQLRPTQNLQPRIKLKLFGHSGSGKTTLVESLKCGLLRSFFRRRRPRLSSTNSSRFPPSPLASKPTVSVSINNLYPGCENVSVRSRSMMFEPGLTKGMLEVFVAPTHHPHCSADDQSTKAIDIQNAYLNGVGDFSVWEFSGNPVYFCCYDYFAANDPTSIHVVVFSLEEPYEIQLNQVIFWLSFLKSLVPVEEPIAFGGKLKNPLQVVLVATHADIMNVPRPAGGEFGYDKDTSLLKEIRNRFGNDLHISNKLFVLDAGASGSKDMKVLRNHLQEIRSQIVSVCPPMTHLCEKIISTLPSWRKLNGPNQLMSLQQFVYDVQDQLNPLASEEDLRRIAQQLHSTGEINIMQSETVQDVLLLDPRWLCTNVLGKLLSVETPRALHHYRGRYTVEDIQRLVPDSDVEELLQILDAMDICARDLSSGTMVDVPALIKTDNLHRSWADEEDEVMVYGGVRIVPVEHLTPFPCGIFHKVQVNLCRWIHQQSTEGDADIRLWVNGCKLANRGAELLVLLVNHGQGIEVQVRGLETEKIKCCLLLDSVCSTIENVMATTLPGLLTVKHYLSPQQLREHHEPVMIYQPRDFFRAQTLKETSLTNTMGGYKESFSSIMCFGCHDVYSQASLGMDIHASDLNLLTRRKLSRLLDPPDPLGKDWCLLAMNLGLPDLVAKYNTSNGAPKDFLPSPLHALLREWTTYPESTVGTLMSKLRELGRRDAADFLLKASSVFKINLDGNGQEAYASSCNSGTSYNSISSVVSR
Sodium-dependent noradrenaline transporter (Homo sapiens), sequence (P23975 whole entry): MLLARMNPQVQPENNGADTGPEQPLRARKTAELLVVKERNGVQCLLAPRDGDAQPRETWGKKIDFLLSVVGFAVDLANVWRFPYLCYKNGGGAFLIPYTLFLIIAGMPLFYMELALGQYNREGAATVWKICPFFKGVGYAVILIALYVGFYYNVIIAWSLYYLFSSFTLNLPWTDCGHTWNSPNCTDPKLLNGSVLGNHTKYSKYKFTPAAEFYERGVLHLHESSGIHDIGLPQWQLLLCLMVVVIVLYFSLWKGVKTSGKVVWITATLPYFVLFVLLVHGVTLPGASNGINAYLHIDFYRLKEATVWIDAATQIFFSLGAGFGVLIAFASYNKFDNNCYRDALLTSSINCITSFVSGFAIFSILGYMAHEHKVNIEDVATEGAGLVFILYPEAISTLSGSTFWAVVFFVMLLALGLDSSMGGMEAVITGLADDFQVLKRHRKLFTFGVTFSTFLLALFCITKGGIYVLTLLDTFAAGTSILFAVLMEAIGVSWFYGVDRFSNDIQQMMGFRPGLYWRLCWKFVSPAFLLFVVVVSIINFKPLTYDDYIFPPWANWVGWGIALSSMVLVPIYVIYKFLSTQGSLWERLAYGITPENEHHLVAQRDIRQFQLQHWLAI
5-hydroxytryptamine receptor 1B (Homo sapiens), sequence (P28222 whole entry): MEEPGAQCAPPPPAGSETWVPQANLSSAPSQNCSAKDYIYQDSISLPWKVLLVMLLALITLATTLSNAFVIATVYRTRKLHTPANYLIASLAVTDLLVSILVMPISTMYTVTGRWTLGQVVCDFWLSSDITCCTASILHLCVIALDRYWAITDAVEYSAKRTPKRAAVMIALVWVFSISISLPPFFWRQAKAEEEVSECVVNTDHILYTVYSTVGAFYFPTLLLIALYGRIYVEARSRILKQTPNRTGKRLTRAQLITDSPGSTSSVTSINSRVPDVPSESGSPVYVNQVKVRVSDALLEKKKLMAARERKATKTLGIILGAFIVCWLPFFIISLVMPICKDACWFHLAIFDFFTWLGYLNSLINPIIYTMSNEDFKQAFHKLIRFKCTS
Proto-oncogene tyrosine-protein kinase receptor Ret (Homo sapiens), P07949 [V804L], sequence (P07949 whole entry V804L): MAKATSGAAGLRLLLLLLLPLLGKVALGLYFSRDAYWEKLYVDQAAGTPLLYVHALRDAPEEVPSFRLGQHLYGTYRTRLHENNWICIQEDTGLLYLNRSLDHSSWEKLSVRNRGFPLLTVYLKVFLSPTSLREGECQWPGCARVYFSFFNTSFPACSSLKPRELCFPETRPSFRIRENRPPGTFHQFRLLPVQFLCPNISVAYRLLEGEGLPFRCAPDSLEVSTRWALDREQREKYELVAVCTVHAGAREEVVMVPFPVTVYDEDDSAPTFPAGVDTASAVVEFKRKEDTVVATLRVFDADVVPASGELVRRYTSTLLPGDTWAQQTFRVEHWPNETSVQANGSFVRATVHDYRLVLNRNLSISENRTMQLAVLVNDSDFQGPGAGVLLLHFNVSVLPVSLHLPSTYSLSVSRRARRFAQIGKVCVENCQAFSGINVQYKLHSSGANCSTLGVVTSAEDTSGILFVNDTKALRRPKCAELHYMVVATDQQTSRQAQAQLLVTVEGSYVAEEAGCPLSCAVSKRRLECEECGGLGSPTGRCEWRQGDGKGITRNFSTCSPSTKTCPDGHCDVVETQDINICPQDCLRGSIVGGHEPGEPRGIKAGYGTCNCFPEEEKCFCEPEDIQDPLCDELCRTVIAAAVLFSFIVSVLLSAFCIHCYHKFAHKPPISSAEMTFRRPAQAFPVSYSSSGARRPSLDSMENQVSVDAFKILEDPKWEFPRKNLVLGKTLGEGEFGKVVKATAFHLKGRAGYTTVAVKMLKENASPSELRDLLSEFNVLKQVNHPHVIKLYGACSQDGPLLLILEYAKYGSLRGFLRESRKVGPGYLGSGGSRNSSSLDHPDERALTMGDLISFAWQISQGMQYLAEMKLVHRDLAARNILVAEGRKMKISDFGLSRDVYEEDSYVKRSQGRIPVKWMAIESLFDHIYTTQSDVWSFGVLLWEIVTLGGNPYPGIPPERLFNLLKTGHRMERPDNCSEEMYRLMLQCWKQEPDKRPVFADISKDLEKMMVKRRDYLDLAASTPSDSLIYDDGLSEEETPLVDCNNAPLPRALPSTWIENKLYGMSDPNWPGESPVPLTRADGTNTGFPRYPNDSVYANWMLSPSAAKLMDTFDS
Activin receptor type-1-like (Homo sapiens), sequence (P37023 whole entry): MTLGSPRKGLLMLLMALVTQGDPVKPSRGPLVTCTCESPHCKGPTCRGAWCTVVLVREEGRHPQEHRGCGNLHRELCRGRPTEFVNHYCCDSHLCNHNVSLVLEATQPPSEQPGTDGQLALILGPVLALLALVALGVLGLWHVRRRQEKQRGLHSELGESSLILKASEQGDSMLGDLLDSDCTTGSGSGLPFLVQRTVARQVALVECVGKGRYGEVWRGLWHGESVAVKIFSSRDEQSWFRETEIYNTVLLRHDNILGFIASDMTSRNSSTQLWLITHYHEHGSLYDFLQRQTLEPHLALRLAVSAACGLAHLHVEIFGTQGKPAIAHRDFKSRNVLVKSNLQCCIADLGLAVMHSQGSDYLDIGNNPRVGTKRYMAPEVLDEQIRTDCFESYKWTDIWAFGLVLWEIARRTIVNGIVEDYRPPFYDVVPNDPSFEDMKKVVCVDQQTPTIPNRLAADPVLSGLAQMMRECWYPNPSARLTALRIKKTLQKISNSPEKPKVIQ
Fibroblast growth factor receptor 4 (Homo sapiens), sequence (P22455 22-802 limits assumed): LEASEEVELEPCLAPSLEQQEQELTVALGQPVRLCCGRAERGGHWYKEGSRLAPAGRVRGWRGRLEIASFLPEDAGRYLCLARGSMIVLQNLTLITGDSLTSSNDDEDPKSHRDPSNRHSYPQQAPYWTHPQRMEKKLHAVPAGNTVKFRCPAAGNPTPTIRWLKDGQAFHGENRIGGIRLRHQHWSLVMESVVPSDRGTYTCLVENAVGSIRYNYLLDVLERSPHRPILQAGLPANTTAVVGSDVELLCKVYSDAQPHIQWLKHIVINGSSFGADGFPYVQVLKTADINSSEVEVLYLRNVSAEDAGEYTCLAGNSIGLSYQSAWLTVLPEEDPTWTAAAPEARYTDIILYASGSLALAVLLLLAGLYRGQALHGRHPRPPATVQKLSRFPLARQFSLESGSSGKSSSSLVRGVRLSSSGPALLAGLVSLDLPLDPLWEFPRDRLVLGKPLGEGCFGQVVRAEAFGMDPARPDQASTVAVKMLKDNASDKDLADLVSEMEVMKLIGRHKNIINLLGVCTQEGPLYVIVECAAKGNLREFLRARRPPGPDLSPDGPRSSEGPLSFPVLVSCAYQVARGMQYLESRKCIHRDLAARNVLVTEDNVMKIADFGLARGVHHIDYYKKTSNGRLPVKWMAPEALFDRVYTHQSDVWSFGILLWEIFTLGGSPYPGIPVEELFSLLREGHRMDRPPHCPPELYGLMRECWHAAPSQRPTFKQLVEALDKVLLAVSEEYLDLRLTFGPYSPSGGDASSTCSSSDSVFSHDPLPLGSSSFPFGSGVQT

## CCC(=N\O)/C(C)=C/c1ccc(F)cc1 [A-079]
[1]
  residual activity: 100%
[2]; read-out: Ki
  Ki: 505 nM
[2]; read-out: pKi (converted)
  Ki: 457 nM
[3]
  residual activity: 80%
[4]
  residual activity: 84%
[5]
  residual activity: 100%
[6]
  residual activity: 87%
[7]
  residual activity: 89%
[8]
  residual activity: 100%
[9]
  inhibition: -2.32%
[10]
  residual activity: 75%
[11]
  residual activity: 99%
[12]
  residual activity: 100%
[13]
  inhibition: 84%
[14]
  residual activity: 76%
[15]
  residual activity: 87%
[16]
  residual activity: 100%
[17]
  inhibition: 7.88%
[18]
  residual activity: 100%
[19]
  residual activity: 87%
[20]
  residual activity: 89%
[21]
  residual activity: 84%
[22]
  residual activity: 76%
[23]
  residual activity: 94%
[24]
  residual activity: 96%
[25]
  residual activity: 71%
[26]
  residual activity: 100%
[27]
  residual activity: 87%
[28]
  inhibition: -4.62%
[29]
  residual activity: 74%
[30]
  inhibition: 18.2%
[31]
  residual activity: 87%
[32]
  residual activity: 75%

## CCC(=N\O)/C(C)=C/c1ccc(F)c(C)c1 [A-226]
[1]
  residual activity: 100%
[2]; read-out: Ki
  Ki: 529 nM
[3]
  residual activity: 100%
[4]
  residual activity: 89%
[5]
  residual activity: 95%
[6]
  residual activity: 100%
[7]
  residual activity: 95%
[8]
  residual activity: 97%
[9]
  inhibition: -0.42%
[10]
  residual activity: 100%
[11]
  residual activity: 100%
[12]
  residual activity: 100%
[13]
  inhibition: 86.8%
[14]
  residual activity: 91%
[15]
  residual activity: 88%
[16]
  residual activity: 75%
[17]
  inhibition: -1.04%
[18]
  residual activity: 100%
[19]
  residual activity: 88%
[20]
  residual activity: 63%
[21]
  residual activity: 87%
[22]
  residual activity: 98%
[23]
  residual activity: 98%
[24]
  residual activity: 83%
[25]
  residual activity: 100%
[26]
  residual activity: 97%
[27]
  residual activity: 79%
[28]
  inhibition: 0.44%
[29]
  residual activity: 100%
[30]
  inhibition: 15.4%
[31]
  residual activity: 100%
[32]
  residual activity: 97%
